The values that follow come from patent US20090181986A1, “SUBSTITUTED HETEROCYCLIC COMPOUNDS” (priority 2007, published 2009).

Data set [1] deals with L-type calcium channel. As to the kind of experiment: L-type calcium channel activity well-plate assay (IMR-32 cells, Ca-4 dye, FlexStation). The class given is cell-based, human. The protocol:
Cell Culture: IMR-32 (human neuroblastoma) cells were obtained from The American Type Culture Collection. The cells were maintained in MEM supplemented with 10% fetal bovine serum, 2 mM of L-glutamine, 100 IU/ml of penicillin, 50 μg/ml of streptomycin, 1% of sodium pyruvate, 1% of sodium bicarbonate and 1% of non-essential amino acid. […] Culture medium was changed every two days and cells were recultivated when they reached 70-80% confluent.
Assay: IMR-32 cells were seeded on a Microtest 96-well Assay Plate (BD FALCON™) at a density of 200,000 cells/well in 200 μl culture medium for overnight. The culture medium was removed, and replaced by 120 μl Ca-4 dye (MDS Analytical Technologies, Sunnyvale, Calif.) in HBSS (1× Hank's Balanced Salt solution plus 20 mM HEPES, pH 7.4) containing 2 mM probenecid. Cells were then incubated for 1 hour at 37° in incubator. Testing compounds were diluted from 5 μM-50 μM in HBSS, and 40 μl were added in cells before assay. […] The inhibition of L-type calcium channel activity by compounds was then calculated.

The target of data set [2] is hERG potassium channel (Homo sapiens, UniProt Q12809). The data set is described as follows: hERG screening assay (PatchXpress patch clamp, CHO cells).
Sequence of hERG potassium channel (Q12809 whole entry): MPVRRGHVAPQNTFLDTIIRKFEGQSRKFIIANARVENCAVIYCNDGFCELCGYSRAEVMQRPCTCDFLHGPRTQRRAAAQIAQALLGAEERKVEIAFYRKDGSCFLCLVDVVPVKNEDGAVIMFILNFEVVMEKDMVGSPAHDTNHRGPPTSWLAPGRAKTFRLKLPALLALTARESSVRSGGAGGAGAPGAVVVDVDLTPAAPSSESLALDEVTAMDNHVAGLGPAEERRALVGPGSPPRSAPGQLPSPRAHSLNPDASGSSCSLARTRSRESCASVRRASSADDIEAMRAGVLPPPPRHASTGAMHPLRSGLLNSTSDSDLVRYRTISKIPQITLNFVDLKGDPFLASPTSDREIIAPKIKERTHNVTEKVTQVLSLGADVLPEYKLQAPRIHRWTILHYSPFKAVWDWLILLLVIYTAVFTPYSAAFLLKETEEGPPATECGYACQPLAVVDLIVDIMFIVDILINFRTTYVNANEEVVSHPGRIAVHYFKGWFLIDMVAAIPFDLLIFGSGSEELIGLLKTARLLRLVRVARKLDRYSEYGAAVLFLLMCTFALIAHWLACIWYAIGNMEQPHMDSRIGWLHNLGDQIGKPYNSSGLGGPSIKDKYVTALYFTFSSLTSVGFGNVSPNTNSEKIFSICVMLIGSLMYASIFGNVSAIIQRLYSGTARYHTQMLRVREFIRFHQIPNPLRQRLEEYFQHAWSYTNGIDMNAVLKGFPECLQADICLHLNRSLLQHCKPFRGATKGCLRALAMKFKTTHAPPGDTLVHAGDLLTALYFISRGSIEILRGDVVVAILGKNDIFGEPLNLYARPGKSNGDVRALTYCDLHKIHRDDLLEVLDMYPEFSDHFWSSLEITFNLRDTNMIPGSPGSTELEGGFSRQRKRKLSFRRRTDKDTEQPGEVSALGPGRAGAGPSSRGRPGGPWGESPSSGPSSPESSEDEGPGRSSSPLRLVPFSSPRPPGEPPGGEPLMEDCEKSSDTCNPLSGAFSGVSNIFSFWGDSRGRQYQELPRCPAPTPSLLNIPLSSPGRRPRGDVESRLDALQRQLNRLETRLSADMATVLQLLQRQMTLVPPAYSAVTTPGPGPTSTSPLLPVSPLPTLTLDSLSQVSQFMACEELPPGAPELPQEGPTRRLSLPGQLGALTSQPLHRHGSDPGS
Method: Compounds were screened to test their activity in blocking the hERG potassium channel. The hERG channel is heterologously expressed in a CHO (Chinese Hamster Ovary) cell line. Cells are maintained with standard tissue culture procedures and stable channel expression is maintained with 500 μg/ml G418 in the culture medium. Cells are harvested for testing on the PatchXpress automated patch clamp with Acctumax (Innovative Cell Technologies, San Diego, Calif.) to isolate single cells.
The following solutions are used for electrophysiological recordings. The external solution contains: 2 mM CaCl2; 2 mM MgCl2; 4 mM KCl; 150 mM NaCl; 10 mM Glucose; 10 mM HEPES (pH 7.4 with 1M NaOH, osmolarity).
hERG channels are activated when the voltage is stepped to +20 mV from the −80 mV holding potential (see FIG. 3). During a 5 second step at +20 mV, the channels activate and then largely inactivate, so the currents are relatively small. Upon returning to −50 mV from +20 mV, hERG currents transiently become much larger as inactivation is rapidly removed and then the channel closes. The first step to −50 mV for 300 ms is used as a baseline for measuring the peak amplitude during the step to −50 mV after channel activation. The peak current at −50 mV is measured both under control conditions and after addition of compound.
All compounds are prepared as 10 mM DMSO stocks in glass vials. Stock solutions are mixed by vigorous vortexing and sonication for about 2 minutes at room temperature. For testing, compounds are diluted in glass vials using an intermediate dilution step in pure DMSO and then further diluted to working concentrations in external solution. Dilutions are prepared no longer than 20 minutes before use.
After achieving the whole-cell configuration, cells are monitored for 90 seconds to assess stability and washed with external solution for 66 seconds. The voltage protocol described above is then applied to the cells every 12 seconds and throughout the whole procedure. Only cells with stable recording parameters and meeting specified health criteria are allowed to enter the compound addition procedure.
External solution containing 0.1% DMSO (vehicle) is applied to the cells first to establish the control peak current amplitude. After allowing the current to stabilize for 3 to 5 minutes, 1 μM and then 10 μM test compounds are applied. Each compound concentration is added 4 times and cells are kept in test solution until the effect of the compound reaches steady state or for a maximum of 12 minutes. […] Washout in the external solution compartment is performed until the recovery of the current reaches steady state. Data are analyzed using DataXpress, Clampfit (Molecular Devices, Inc., Sunnyvale) and Origin 7 (Originlab Corp.)

Regarding `CC1=C(C(=O)OCc2ccccc2)C(c2csc3ccccc23)n2nnnc2N1` (stereo not drawn) [PT-042, benzyl 7-(benzo[b]thiophen-3-yl)-5-methyl-4,7-dihydrotetrazolo[1,5-a]pyrimidine-6-carboxylate], in data set [1], the “CaL Plate Assay % blk (1 μM test cmpd)” value was 0% and the “CaL Plate Assay % blk (10 μM test cmpd)” value stood at 16%. In data set [2], the “hERG Patch Clamp hERG % blk (1 μM test cmpd)” value is reported as 11% and the “hERG Patch Clamp hERG % blk (10 μM test cmpd)” value came to 52.5%.
Taken in the same sequence, the figures for `CC1=C(C(=O)OCc2ccccc2)C(c2sc3ccccc3c2C)n2nnnc2N1` (stereo not drawn) [PT-044, benzyl 5-methyl-7-(3-methylbenzo[b]thiophen-2-yl)-4,7-dihydrotetrazolo[1,5-a]pyrimidine-6-carboxylate] were 7%, 35%, 16.5% and 40%.
The like results for `CC1=C(C(=O)OCc2ccccc2)C(c2cc3ccccc3o2)n2nnnc2N1` (stereo not drawn) [PT-045, benzyl 7-(benzofuran-2-yl)-5-methyl-4,7-dihydrotetrazolo[1,5-a]pyrimidine-6-carboxylate] were, in that order, 0%, 98%, 10% and 70%.
As to `CC1=C(C(=O)OC2CCc3ccccc32)C(c2cccc3ccccc23)n2nnnc2N1` (stereo not drawn) [PT-062, 2,3-dihydro-1H-inden-1-yl 5-methyl-7-(naphthalen-1-yl)-4,7-dihydrotetrazolo[1,5-a]pyrimidine-6-carboxylate], the “CaL Plate Assay % blk (1 μM test cmpd)” value in data set [1] was 51%. The “hERG Patch Clamp hERG % blk (10 μM test cmpd)” value in data set [2] was found to be 14%.
Turning to `N#CC1=C(N)NC2=C(C(=O)CCC2)C1c1ccc(Br)cc1` (stereo not drawn) [PT-095, 2-amino-4-(4-bromophenyl)-5-oxo-1,4,5,6,7,8-hexahydroquinoline-3-carbonitrile], in data set [1], the “CaL Plate Assay % blk (1 μM test cmpd)” value was found to be 0% and the “CaL Plate Assay % blk (10 μM test cmpd)” value is listed as 15%. Also, in data set [2], the “hERG Patch Clamp hERG % blk (1 μM test cmpd)” value stood at 10% and the “hERG Patch Clamp hERG % blk (10 μM test cmpd)” value is recorded as 24.5%.
Taken in the same sequence, the figures for `N#CC1=C(N)OC2=C(C(=O)CCC2)C1c1ccc(Br)cc1` (stereo not drawn) [PT-096, 2-amino-4-(4-bromophenyl)-5-oxo-5,6,7,8-tetrahydro-4H-chromene-3-carbonitrile] were 8%, 39%, 15% and 48%.
The like results for `N#CC1=C(N)OC2=C(C(=O)CCC2)C1c1ccsc1` (stereo not drawn) [PT-100, 2-amino-5-oxo-4-(thiophen-3-yl)-5,6,7,8-tetrahydro-4H-chromene-3-carbonitrile] were, in that order, 0%, 0%, 10% and 16.5%.
The like results for `N#CC1=C(N)OC2=C(C(=O)CC(c3ccccc3)C2)C1c1cccs1` (stereo not drawn) [PT-101, 2-amino-5-oxo-7-phenyl-4-(thiophen-2-yl)-5,6,7,8-tetrahydro-4H-chromene-3-carbonitrile] were, in that order, 6%, 47%, 19% and 67.5%.
In the case of `N#CC1=C(N)OC2=C(C(=O)CC(c3ccccc3)C2)C1c1ccco1` (stereo not drawn) [PT-104, 2-amino-4-(furan-2-yl)-5-oxo-7-phenyl-5,6,7,8-tetrahydro-4H-chromene-3-carbonitrile], in data set [1], the “CaL Plate Assay % blk (1 μM test cmpd)” value worked out at 0% and the “CaL Plate Assay % blk (10 μM test cmpd)” value is 27%. Moreover, in data set [2], the “hERG Patch Clamp hERG % blk (1 μM test cmpd)” value is 18% and the “hERG Patch Clamp hERG % blk (10 μM test cmpd)” value came out at 46%.
Taken in the same sequence, the figures for `CCOC(=O)C1=C(C)NC(C)=C(C(=O)OCC)C1c1ccc2ccccc2c1` [PT-107, diethyl 2,6-dimethyl-4-(naphthalen-2-yl)-1,4-dihydropyridine-3,5-dicarboxylate] were 10%, 44%, 11.5% and 48%.
Taken in the same sequence, the figures for `CCOC(=O)C1=C(C)NC(C)=C(C(=O)OCC)C1c1cccs1` [PT-111, diethyl 2,6-dimethyl-4-(thiophen-2-yl)-1,4-dihydropyridine-3,5-dicarboxylate] were 75%, 79%, 11.5% and 48.5%.
Taken in the same sequence, the figures for `CCOC(=O)C1=C(C)NC(C)=C(C(=O)OCC)C1c1ccc(CC)s1` [PT-113, diethyl 4-(5-ethylthiophen-2-yl)-2,6-dimethyl-1,4-dihydropyridine-3,5-dicarboxylate] were 18%, 93%, 11% and 57.5%.
Consider `CCOC(=O)C1=C(C)NC(C)=C(C(=O)OCC)C1c1cc2ccccc2s1` [PT-114, diethyl 4-(benzo[b]thiophen-2-yl)-2,6-dimethyl-1,4-dihydropyridine-3,5-dicarboxylate], for which, in data set [1], the “CaL Plate Assay % blk (1 μM test cmpd)” value is recorded as 8% and the “CaL Plate Assay % blk (10 μM test cmpd)” value is listed as 15%. In data set [2], the “hERG Patch Clamp hERG % blk (1 μM test cmpd)” value worked out at 27.5% and the “hERG Patch Clamp hERG % blk (10 μM test cmpd)” value was 86.5%.
With `CCOC(=O)C1=C(C)NC(C)=C(C(=O)OCC)C1c1sc2ccccc2c1C` [PT-116, diethyl 2,6-dimethyl-4-(3-methylbenzo[b]thiophen-2-yl)-1,4-dihydropyridine-3,5-dicarboxylate], in data set [1], the “CaL Plate Assay % blk (1 μM test cmpd)” value amounted to 6% and the “CaL Plate Assay % blk (10 μM test cmpd)” value is recorded as 32%. In data set [2], the “hERG Patch Clamp hERG % blk (1 μM test cmpd)” value is 22.9% and the “hERG Patch Clamp hERG % blk (10 μM test cmpd)” value is on record as 66%.
For `CCOC(=O)C1=C(C)NC(C)=C(C(=O)OCC)C1c1cc2ccccc2o1` [PT-122, diethyl 4-(benzofuran-2-yl)-2,6-dimethyl-1,4-dihydropyridine-3,5-dicarboxylate], in data set [1], the “CaL Plate Assay % blk (1 μM test cmpd)” value is recorded as 10% and the “CaL Plate Assay % blk (10 μM test cmpd)” value is 63%. Besides, in data set [2], the “hERG Patch Clamp hERG % blk (1 μM test cmpd)” value is recorded as 15.5% and the “hERG Patch Clamp hERG % blk (10 μM test cmpd)” value came out at 55%.
Regarding `CC1=C(C(=O)OC(C)C)C(c2cccc3ccccc23)C(C(=O)OC(C)C)=C(C)N1` [PT-123, diisopropyl 2,6-dimethyl-4-(naphthalen-1-yl)-1,4-dihydropyridine-3,5-dicarboxylate], in data set [1], the “CaL Plate Assay % blk (1 μM test cmpd)” value came to 59% and the “CaL Plate Assay % blk (10 μM test cmpd)” value was found to be 92%. Moreover, in data set [2], the “hERG Patch Clamp hERG % blk (1 μM test cmpd)” value is on record as 10% and the “hERG Patch Clamp hERG % blk (10 μM test cmpd)” value is 30.5%.
The like results for `CC1=C(C(=O)OC(C)C)C(c2ccc(Br)s2)C(C(=O)OC(C)C)=C(C)N1` [PT-124, diisopropyl 4-(5-bromothiophen-2-yl)-2,6-dimethyl-1,4-dihydropyridine-3,5-dicarboxylate] were, in that order, 10%, 52%, 11.5% and 66%.
